Experiments:
Dog tooth pulp = assay type: in vivo; settings: unmarked entry of animal model table
[1] = Anti-inflammatory effects in vivo
Safety pharmacology, dog = assay type: in vivo
Mouse Tail-Flick = assay type: in vivo; design: key to activity in mouse Tail flick model: *: Inactive; Φ: Weakly active
uptake of dopamine = molecular target: T1, uptake of dopamine (Rattus norvegicus, UniProt P23977); assay: Dopamine uptake in rat brain preparations; assay type: biochemical; settings: printed as 'and/or dopamine'
T1 construct: dopamine in rat brain preparations; from tissue; host or cells: rat brain preparations

[2] = Safety pharmacology, monkey; assay type: in vivo
[3] = molecular target: T2, rat synaptosomal NE Reuptake (Rattus norvegicus, UniProt Q63380); assay: Norepinephrine reuptake assay (rat synaptosomal NE uptake); assay type: biochemical
T2 construct: rat synaptosomal 5-HT and NE Reuptake; from tissue; host or cells: rat synaptosomes (rat brain preparations)

[4] = molecular target: T3, delta receptor sites in the brain (Homo sapiens, UniProt P41143); assay: Activity at delta receptor sites in the brain; assay type: binding
T3 construct: mu, kappa, delta or sigma receptor sites in the brain; from tissue

Rat Randall-Selitto = assay type: in vivo; design: key to activity in rat Randell-Selitto model: *: Inactive; Φ: Weakly active
[5] = Five-day Oral Dose Escalation in Beagle Dogs; assay type: in vivo, Beagle dog
[6] = molecular target: T4, mu receptor sites in the brain (Homo sapiens, UniProt P35372); assay: Activity at mu receptor sites in the brain; assay type: binding
T4 construct: mu, kappa, delta or sigma receptor sites in the brain; from tissue

Rat Tail-Flick = assay type: in vivo; design: key to activity in rat Tail Flick model: *: Inactive; Φ: Weakly active
Formalin model = assay type: in vivo; settings: rat
Source text: Formalin induces inflammatory stimulation of peripheral nerves that results in sensitization of CNS nociceptive transmission pathways. There are two phases of formalin-induced nociception: phase I—an acute nociceptive component; and phase II—a chronic nociceptive component characterized by hyperalgesia.
On the morning of formalin testing, a small metal band (0.5 g) was loosely placed around the right hind paw. The rat was placed in a cylindrical Plexiglas chamber for adaptation for a minimum of 30 minutes. Compound A, venlafaxine or a saline control was administered into the dorsal surface of the right hindpaw of the rat. The animal was then placed into the chamber of the automated formalin apparatus where movement of the formalin-injected paw was monitored and the number of paw flinches tallied by minute over the next sixty minutes. Upon completion of the test the animal was removed and euthanized.

[7] = molecular target: T5, kappa receptor sites in the brain (Homo sapiens, UniProt P41145); assay: Activity at kappa receptor sites in the brain; assay type: binding
T5 construct: mu, kappa, delta or sigma receptor sites in the brain; from tissue

prostaglandin synthesase = assay: Prostaglandin synthesase inhibition; assay type: biochemical
[8] = Abuse assay (self-administration); assay type: in vivo, Cynomologous monkeys
Protocol: Cynomologous monkeys are trained to self-administer drugs by pressing on a lever a certain number of times. The number of times an animal will press the lever before extinquishing in an attempt to self-administer drug is calculated as their fixed ratio (FR). For example, cynomologous monkeys that are trained to self-administer codeine will press the lever 300 times (FR 300) and or 10,000 times (FR 10,000) to obtain a dose of codeine. Cynomologous monkeys were trained to self-administer the compounds of the present invention.

[9] = Studies in animals: addictive and respiratory depressant properties; assay type: in vivo; settings: versus narcotic-related analgesics
[10] = Safety pharmacology, mouse; assay type: in vivo
Rat PQW = assay type: in vivo
Protocol: (§1) The anti-phenylquinone writhing (PQW) test modified from the methods of Siegmund et al. (Proc. Soc. Exp. Biol. Med. 95: 729-731, 1957) and Blumberg et al. (Proc. Exp. Biol. Med. 118: 763-767, 1965) was used to assess the relief from the simulated symptoms of neuropathic pain in mice. Male CF1 mice (Charles River Breeding Laboratories, Wilmington, Mass.), fasted for 16-22 hours and weighing 18-23 g, were injected with randomized and coded doses of test compounds, then challenged with 1.25 mg/kg i.p. phenyl-p-benzoquinone (phenylquinone) 5 minutes prior to the specified observation time. The phenylquinone solution (0.1 mg/ml in 5% aqueous ethanol) was prepared daily and stored in foil-wrapped amber bottles to limit degradation. Mice were observed 10 minutes for the presence or absence of the characteristic abdominal constriction and stretching response beginning 30 minutes after injection of the test compound. Activity was calculated as the percentage of mice failing to respond to the phenylquinone challenge dose. […] Median effective doses (ED50's) and 95% confidence limits were determined numerically by the methods of Thompson (Bacteriological Rev. 11: 115-145, 1947), and Litchfield and Wilcoxon (J. Pharmacol. Exp. Ther. 96: 99-113, 1949).

[11] = Mouse antiphenylquinone writhing (PQW) test; assay type: in vivo
Protocol: as §1

Safety pharmacology, rat = assay type: in vivo
[12] = all administered doses, versus saline control

T2 sequence (Q63380 1-617): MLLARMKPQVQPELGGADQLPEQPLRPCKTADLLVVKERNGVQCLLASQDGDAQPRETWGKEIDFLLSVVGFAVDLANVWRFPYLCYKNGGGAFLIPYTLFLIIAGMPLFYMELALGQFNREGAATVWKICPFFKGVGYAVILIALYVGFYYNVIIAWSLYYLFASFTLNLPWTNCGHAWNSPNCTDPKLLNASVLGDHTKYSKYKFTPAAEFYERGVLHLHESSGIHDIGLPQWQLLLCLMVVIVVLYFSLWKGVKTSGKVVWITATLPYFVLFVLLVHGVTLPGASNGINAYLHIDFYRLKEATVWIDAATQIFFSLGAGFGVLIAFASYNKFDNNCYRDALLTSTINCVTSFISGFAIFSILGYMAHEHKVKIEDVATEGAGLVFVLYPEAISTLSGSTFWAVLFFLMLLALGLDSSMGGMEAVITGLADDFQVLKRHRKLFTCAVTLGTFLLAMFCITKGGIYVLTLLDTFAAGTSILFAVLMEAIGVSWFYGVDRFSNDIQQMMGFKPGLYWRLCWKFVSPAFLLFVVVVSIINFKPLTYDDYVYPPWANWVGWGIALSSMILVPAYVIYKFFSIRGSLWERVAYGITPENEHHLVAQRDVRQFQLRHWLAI
T5 sequence (P41145 whole entry): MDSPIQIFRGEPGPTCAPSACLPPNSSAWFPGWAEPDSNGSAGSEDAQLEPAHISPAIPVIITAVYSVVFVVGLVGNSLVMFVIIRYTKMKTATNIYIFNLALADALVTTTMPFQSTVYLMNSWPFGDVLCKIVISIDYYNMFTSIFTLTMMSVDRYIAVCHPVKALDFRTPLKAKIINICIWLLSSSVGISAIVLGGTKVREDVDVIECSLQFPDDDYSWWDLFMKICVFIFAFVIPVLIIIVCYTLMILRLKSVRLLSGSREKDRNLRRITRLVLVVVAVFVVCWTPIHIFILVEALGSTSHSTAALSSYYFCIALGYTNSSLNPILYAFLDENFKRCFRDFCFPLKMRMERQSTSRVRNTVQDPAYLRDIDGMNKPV
T4 sequence (P35372 whole entry): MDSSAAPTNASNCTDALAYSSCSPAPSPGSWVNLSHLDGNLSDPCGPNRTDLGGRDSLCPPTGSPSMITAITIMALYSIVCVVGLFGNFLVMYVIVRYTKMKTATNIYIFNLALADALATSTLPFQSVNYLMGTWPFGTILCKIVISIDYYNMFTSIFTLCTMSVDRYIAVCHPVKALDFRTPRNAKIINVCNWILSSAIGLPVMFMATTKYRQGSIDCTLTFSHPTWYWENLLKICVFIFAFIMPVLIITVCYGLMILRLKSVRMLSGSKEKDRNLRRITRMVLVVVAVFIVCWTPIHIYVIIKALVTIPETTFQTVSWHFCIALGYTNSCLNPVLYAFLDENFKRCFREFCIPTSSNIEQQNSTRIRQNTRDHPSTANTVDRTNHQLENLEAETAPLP
T1 sequence (P23977 whole entry): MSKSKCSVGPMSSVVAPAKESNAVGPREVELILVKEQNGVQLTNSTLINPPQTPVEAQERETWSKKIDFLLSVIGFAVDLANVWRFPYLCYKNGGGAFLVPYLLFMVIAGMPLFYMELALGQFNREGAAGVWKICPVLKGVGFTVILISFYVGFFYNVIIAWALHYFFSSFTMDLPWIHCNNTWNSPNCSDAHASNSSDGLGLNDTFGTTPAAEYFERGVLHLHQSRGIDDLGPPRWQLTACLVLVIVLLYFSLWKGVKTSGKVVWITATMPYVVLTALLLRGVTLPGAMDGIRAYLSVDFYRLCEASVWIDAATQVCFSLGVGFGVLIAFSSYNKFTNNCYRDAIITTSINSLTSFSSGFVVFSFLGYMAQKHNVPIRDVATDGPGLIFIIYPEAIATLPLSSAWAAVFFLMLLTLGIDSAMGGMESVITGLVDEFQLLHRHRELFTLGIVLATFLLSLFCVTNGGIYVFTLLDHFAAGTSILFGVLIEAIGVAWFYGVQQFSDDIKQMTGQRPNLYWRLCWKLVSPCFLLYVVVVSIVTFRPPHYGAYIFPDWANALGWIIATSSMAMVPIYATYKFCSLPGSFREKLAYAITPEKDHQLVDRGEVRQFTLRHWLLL
T3 sequence (P41143 whole entry): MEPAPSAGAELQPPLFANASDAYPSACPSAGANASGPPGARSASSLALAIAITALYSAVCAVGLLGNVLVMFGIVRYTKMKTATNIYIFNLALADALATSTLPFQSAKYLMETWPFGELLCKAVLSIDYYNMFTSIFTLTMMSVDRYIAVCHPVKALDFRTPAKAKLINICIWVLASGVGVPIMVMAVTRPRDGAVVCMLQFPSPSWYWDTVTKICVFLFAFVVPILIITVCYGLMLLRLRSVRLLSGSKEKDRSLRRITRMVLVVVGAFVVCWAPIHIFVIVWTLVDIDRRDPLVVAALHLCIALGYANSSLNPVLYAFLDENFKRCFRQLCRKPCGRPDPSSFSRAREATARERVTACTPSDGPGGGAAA

CN1CCC(c2ccsc2)(C(C)(C)O)CC1 [Compound A, 4-(3-thienyl)-α,α,1-trimethyl-4-piperidinemethanol]
activity in dog Tooth pulp model (Dog tooth pulp): showed activity | anti-inflammatory effects in vivo [1]: does not inhibit prostaglandin synthesase activity or show anti-inflammatory effects in vivo | MTD (Safety pharmacology, dog; in vivo): 20 mg/kg | hypotension/decreased cardiac contractility, anemia, multiple of effective dose (Safety pharmacology, dog; iv-pentobarb): 10 X | emesis/anorexia BW loss, multiple of effective dose (Safety pharmacology, dog; po): 1-10 X | respiratory acidosis, multiple of effective dose (Safety pharmacology, dog; po): 10 X | ED50 (Mouse Tail-Flick; Mus musculus, read-out: Mouse Tail-Flick ED50): 117 mg/kg | activity in mouse Tail flick model (Mouse Tail-Flick; mouse): Tail flick^Φ | uptake of dopamine (uptake of dopamine): inhibits uptake | MTD ([2]; in vivo, other: iv/sc): 16 to 32 mg/kg | LD ([2]; iv/sc): LD = 1.6-32 mg/kg | physical dep ([2]; iv/sc): non-opioid | respiratory depression, multiple of effective dose (mg/kg) ([2]; iv/sc): 16/32 | Chronic dosing: effect at 0.4 ([2]; iv/sc, 0.4, at 7 days): 0.4 = retching | Chronic dosing: effect at 1.6 ([2]; iv/sc, 1.6, at 11 days): 1.6 = death | Chronic dosing: effect at 1.6 ([2]; iv/sc, 1.6, at 20 days): 1.6 = death | uptake of norepinephrine ([3]; rat brain preparations): inhibits uptake | IC50 ([3]; rat synaptosomal, read-out: NE uptake inhibition IC50): 223 nM | activity at delta receptor sites [4]: does not show significant activity | ED50 (Rat Randall-Selitto; Rattus norvegicus): 32 mg/kg | activity in rat Randell-Selitto model (Rat Randall-Selitto; rat): Randell-Selitto^Φ | NOEL (mydriasis) [5]: NOEL < 2.5 mg/kg | MTD at 5 day ([5]; dog, in vivo, read-out: MTD (decreased BW)): < 20 mg/kg | activity at mu receptor sites [6]: does not show significant activity | Rat Tail-Flick (Rat Tail-Flick): Inactive | activity in rat Tail Flick model (Rat Tail-Flick): Tail Flick* | effect upon hyperalgesia induced by injection of formalin into the paw (Formalin model): reliable dose dependent effect | formalin test, paw flinches, phase I (Formalin model; all administered doses (200/100/50 mg per kg), versus saline control): statistically significant effects | formalin test, paw flinches, phase II (Formalin model; [12]): statistically significant effects | formalin test, paw flinches, phase IIA (Formalin model; [12]): statistically significant effects | formalin test, paw flinches, Phase IIB (Formalin model; versus saline control): No statistical significance | activity at kappa receptor sites [7]: does not show significant activity | inhibition of prostaglandin synthesase activity (prostaglandin synthesase): does not inhibit | monkeys responding following involuntary injections ([8]; Cynomologous monkeys): two out of four monkeys | self-administration response achieved ([8]; Cynomologous monkeys trained to self-administer): one out of four monkeys | addictive and respiratory depressant properties [9]: lacks the addictive and respiratory depressant properties | LD ([10]; po): LD = 900 mg/kg-po | cross-tolerance to morphine, multiple of effective dose ([10]; po/iv): 1-50 X | inhibition of GI motility, multiple of effective dose ([10]; po/iv): 1 X | mydriasis, multiple of effective dose ([10]; po/iv): 1 X | ED50 (Rat PQW; Rattus norvegicus): 7.9 mg/kg | activity in rat PQW model (Rat PQW; rat, unmarked entry of animal model table): showed activity | ED50 ([11]; Mus musculus): 18 mg/kg | activity in mouse PQW model ([11]; mouse, unmarked entry of animal model table): showed activity | LD (Safety pharmacology, rat; po): LD = 400 mg/kg-po | anorexia, multiple of effective dose (mg/kg) (Safety pharmacology, rat; po): 10,100,300 mg/kg | physical dep (Safety pharmacology, rat; po): non-opioid | respiratory acidosis, exophthalmia, multiple of effective dose (Safety pharmacology, rat; po): 1-50 X | LD (Safety pharmacology, rat; sc): LD = 270 mg/kg-sc

From patent publication US6825217B2, “Carbinols for the treatment of neuropathic dysfunction” (Endo Pharmaceuticals, Inc., priority 2001, dated 2004)
